For the compound `*CC(C)/C=C(/*)C` (repeat unit), the glass transition temperature turned out to be 2.30 °C.

Compound `*Oc1ccc(-c2ccc(Oc3ccc(C(=O)c4cccc(C(=O)c5ccc(*)cc5)c4)cc3)cc2)cc1` (repeat unit) came in with a glass transition temperature of 159.00 °C.

The compound `*Oc1ccc(Oc2ccc(S(=O)(=O)c3ccc(-c4ccc(S(=O)(=O)c5ccc(*)cc5)cc4)cc3)cc2)cc1` (repeat unit) showed a glass transition temperature of 251.00 °C.

On to `*Oc1ccc(P(=O)(c2ccccc2)c2ccc(*)cc2)cc1` (repeat unit), for which the glass transition temperature was 240.00 °C.

`*Oc1ccc(P(C)(=O)c2ccc(*)cc2)cc1` (repeat unit) showed a glass transition temperature of 238.00 °C.

`*Oc1ccc(P(C)(=O)c2ccc(Oc3ccc(P(=O)(c4ccccc4)c4ccc(*)cc4)cc3)cc2)cc1` (repeat unit) came in with a glass transition temperature of 238.00 °C.

`*Oc1ccc(S(=O)(=O)c2ccc(Oc3ccc(/C=C4\CCCC/C(=C\c5ccc(Oc6ccc(S(=O)(=O)c7ccc(Oc8ccc(C(C)(C)c9ccc(*)cc9)cc8)cc7)cc6)cc5)C4=O)cc3)cc2)cc1` (repeat unit) registered a glass transition temperature of 188.00 °C.

With `*Oc1ccc(S(=O)(=O)c2ccc(Oc3ccc(C(C)(C)c4ccc(*)c(C(O)(C(F)(F)F)C(F)(F)F)c4)cc3C(O)(C(F)(F)F)C(F)(F)F)cc2)cc1` (repeat unit), the glass transition temperature stood at 167.00 °C.

Consider `*Oc1ccc(S(=O)(=O)c2ccc(Oc3ccc(C(C)(C)c4ccc(*)c(Cl)c4)cc3Cl)cc2)cc1` (repeat unit), for which the glass transition temperature was 205.00 °C.

Compound `*Oc1ccc(S(=O)(=O)c2ccc(Oc3ccc(C(C)(C)c4ccc(*)cc4)cc3)c(S(=O)(=O)O)c2)cc1S(=O)(=O)O` (repeat unit) came in with a glass transition temperature of 188.00 °C.

Compound `*Oc1ccc(S(=O)(=O)c2ccc(Oc3ccc(C(C)(C)c4ccc(*)cc4)cc3)cc2N)c(N)c1` (repeat unit) yielded a glass transition temperature of 210.50 °C.

Regarding `*Oc1ccc(S(=O)(=O)c2ccc(Oc3ccc(C(c4ccc(*)c([Si](C)(C)C)c4)(C(F)(F)F)C(F)(F)F)cc3[Si](C)(C)C)cc2[Si](C)(C)C)c([Si](C)(C)C)c1` (repeat unit), the glass transition temperature was found to be 148.90 °C.

Compound `*Oc1ccc(S(=O)(=O)c2ccc(Oc3ccc(C(c4ccc(*)cc4)C(C)C)cc3)cc2)cc1` (repeat unit) displayed a glass transition temperature of 200.00 °C.

As for `*Oc1ccc(S(=O)(=O)c2ccc(Oc3ccc(S(=O)(=O)c4ccc(-c5ccc(-c6ccc(S(=O)(=O)c7ccc(*)cc7)cc6)cc5)cc4)cc3)cc2)cc1` (repeat unit), the glass transition temperature turned out to be 281.00 °C.

As for `*c1ccc(Oc2ccc(C(=O)c3cccc(C(=O)c4ccc(Oc5ccc(-c6cc(*)n(-c7ccccc7)n6)cc5)cc4)c3)cc2)cc1` (repeat unit), the glass transition temperature was 190.00 °C.

Compound `*c1ccc(Oc2ccc(C(C)(C)c3ccc(Oc4ccc(S(*)(=O)=O)cc4)cc3)cc2)s1` (repeat unit) yielded a glass transition temperature of 162 °C.

For the compound `*c1ccc(Oc2ccc(S(=O)(=O)c3ccc(Oc4ccc(-c5c6c(c(*)c7ccccc57)C(=O)N(C)C6=O)cc4)cc3)cc2)cc1` (repeat unit), the glass transition temperature was found to be 314.00 °C.

`*c1ccc(Oc2ccc(S(=O)(=O)c3ccc(Oc4ccc(-c5c6c(c(*)c7ccccc57)C(=O)N(CCCCCCCCCCCC)C6=O)cc4)cc3)cc2)cc1` (repeat unit) gave a glass transition temperature of 167.00 °C.

Compound `*c1ccc(Oc2ccc(S(=O)(=O)c3ccc(Oc4ccc(-c5c6c(c(*)c7ccccc57)C(=O)N(c5ccc(C(F)(F)F)cc5)C6=O)cc4)cc3)cc2)cc1` (repeat unit) had a glass transition temperature of 290.00 °C.

In the case of `*c1ccc(Oc2ccc(S(=O)(=O)c3ccc(Oc4ccc(-c5c6c(c(*)c7ccccc57)C(=O)N(c5ccc(F)cc5)C6=O)cc4)cc3)cc2)cc1` (repeat unit), the glass transition temperature is 300.00 °C.

`*c1ccc(S(=O)(=O)c2ccc(Oc3ccc(-c4nn(*)c(=O)c5ccccc45)c(F)c3)cc2)cc1` (repeat unit) had a glass transition temperature of 283.00 °C.
